The source of these data is patent publication US20260250250A1, “3-(SULPHONYL OR SULFONIMIDOYL)PROP-2-EN-1-YL]-2-OXO-1,2-DIHYDROPYRIDINE-3-CARBOXAMIDE DERIVATIVES” (Flinder Therapeutics B.V., priority 2022, published 2026).

Molecules are shown by their SMILES.

In the first assay the target is T1, human E3 ubiquitin-protein ligase RNF31 (HOIP) (Homo sapiens, UniProt Q96EP0).
T1 sequence (Q96EP0 695-1072 limits assumed): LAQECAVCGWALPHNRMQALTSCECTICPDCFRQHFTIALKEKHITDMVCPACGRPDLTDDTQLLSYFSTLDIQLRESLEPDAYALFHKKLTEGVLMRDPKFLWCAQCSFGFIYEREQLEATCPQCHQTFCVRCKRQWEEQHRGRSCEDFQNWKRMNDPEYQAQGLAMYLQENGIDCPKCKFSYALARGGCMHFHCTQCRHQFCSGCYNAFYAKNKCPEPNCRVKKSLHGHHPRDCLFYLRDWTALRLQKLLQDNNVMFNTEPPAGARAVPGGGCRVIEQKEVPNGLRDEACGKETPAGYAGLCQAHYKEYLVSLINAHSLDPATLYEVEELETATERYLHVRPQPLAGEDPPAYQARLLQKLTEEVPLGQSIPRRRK
Kind of assay: Cell-free HTRF-based HOIP inhibition assay. It counts as biochemical.
Conditions: not given
As for the experimental part:
This assay was performed in the following steps: • a) synthesis of recombinant fragment of human E3 ubiquitin-protein ligase RNF31 (HOIP), expressed with purity >90% in E. coli system (the protein was prepared as 1 mg/mL stock in a standard formulation); • b) incubation of the compounds in a typical concentration range: 100-0.005 μM, at a final DMSO conc. 1% with a mixture of HOIP and ubiquitin activating enzyme E1 at 25° C., for 1 h at 25° C.; • c) followed by addition of a ubiquitination solution including E2 and substrates (the reaction proceeds for 2.5 h at 25° C.); and • d) HTRF detection was performed using a PHERAstar FSX (BMG Labtech) plate reader (excitation at 337 nm, dual emissions at 665 and 620 nm).
On the technique in general: Time-resolved FRET reads energy transfer from a long-lived donor to a nearby acceptor.
The IC50 is the point on the concentration scale where inhibition reaches its midpoint. Read a low IC50 as greater potency in that assay. On to `CC(=O)N1CCc2[nH]c(=O)c(C(=O)NC/C=C/S(=O)(=O)c3ccccc3)cc2C1` [Example 13, 6-acetyl-N-[(2E)-3-(benzenesulfonyl)prop-2-en-1-yl]-2-oxo-1,2,5,6,7,8-hexahydro-1,6-naphthyridine-3-carboxamide], for which the IC50 is at most 10 µM.
Still for that read-out and setting: as for `CC(/C=C/S(=O)(=O)c1ccccc1)NC(=O)c1cc2c([nH]c1=O)CCCC2` (centres unmarked) [Example 14, N-[(3E)-4-(benzenesulfonyl)but-3-en-2-yl]-2-oxo-1,2,5,6,7,8-hexahydroquinoline-3-carboxamide], the figure is at most 100 µM; as for `CS(=O)(=O)/C=C/CNC(=O)c1cc2c([nH]c1=O)CCCC2` [Example 15, N-[(2E)-3-methanesulfonylprop-2-en-1-yl]-2-oxo-1,2,5,6,7,8-hexahydroquinoline-3-carboxamide], at most 10 µM; as for `O=C(NC/C=C/S(=O)(=O)C1CCCC1)c1cc2c([nH]c1=O)CCCC2` [Example 17, N-[(2E)-3-(cyclopentanesulfonyl)prop-2-en-1-yl]-2-oxo-1,2,5,6,7,8-hexahydroquinoline-3-carboxamide], at most 10 µM.
`CC(C)S(=O)(=O)/C=C/CNC(=O)c1cc2c([nH]c1=O)CCCC2` [Example 18, 2-oxo-N-[(2E)-3-(propane-2-sulfonyl)prop-2-en-1-yl]-1,2,5,6,7,8-hexahydroquinoline-3-carboxamide] displayed an IC50 of at most 10 µM.
Same read-out and setting: as for `CC(C)S(=O)(=O)/C=C\CNC(=O)c1cc2c([nH]c1=O)CCCC2` [Example 20, 2-oxo-N-[(2Z)-3-(propane-2-sulfonyl)prop-2-en-1-yl]-1,2,5,6,7,8-hexahydroquinoline-3-carboxamide], the figure is at most 100 µM.
Same read-out and setting: as for `CC(C)(C)S(=O)(=O)/C=C/CNC(=O)c1cc2c([nH]c1=O)CCCC2` [Example 23, N-[(2E)-3-(2-methylpropane-2-sulfonyl)prop-2-en-1-yl]-2-oxo-1,2,5,6,7,8-hexahydroquinoline-3-carboxamide], the figure is at most 100 µM.
The compound `COc1ccc(S(=O)(=O)/C=C/CNC(=O)c2cc3c([nH]c2=O)CCCCC3)cc1F` [Example 37, N-[(2E)-3-(3-fluoro-4-methoxybenzenesulfonyl)prop-2-en-1-yl]-2-oxo-1H,2H,5H,6H,7H,8H,9H-cyclohepta[b]pyridine-3-carboxamide] registered an IC50 of at most 10 µM.
`O=C(NC/C=C/S(=O)(=O)c1ccccc1)c1cc2c([nH]c1=O)CCN(C(=O)C1CC(F)(F)C1)C2` [Example 102, N-[(2E)-3-(benzenesulfonyl)prop-2-en-1-yl]-6-(3,3-difluorocyclobutanecarbonyl)-2-oxo-1,2,5,6,7,8-hexahydro-1,6-naphthyridine-3-carboxamide]: the IC50 is at most 10 µM.
The same measure, in the same setting: for `COCCC(=O)N1CCc2[nH]c(=O)c(C(=O)NC/C=C/S(=O)(=O)c3ccccc3)cc2C1` [Example 105, N-[(2E)-3-(benzenesulfonyl)prop-2-en-1-yl]-6-(3-methoxypropanoyl)-2-oxo-1,2,5,6,7,8-hexahydro-1,6-naphthyridine-3-carboxamide] the value was at most 1 µM; for `O=C(NC/C=C/S(=O)(=O)c1ccccc1)c1cc2c([nH]c1=O)CCN(C(=O)CC13CC4CC(CC(C4)C1)C3)C2` [Example 106, 6-[2-(adamantan-1-yl)acetyl]-N-[(2E)-3-(benzenesulfonyl)prop-2-en-1-yl]-2-oxo-1,2,5,6,7,8-hexahydro-1,6-naphthyridine-3-carboxamide], at most 1 µM.
On the same count and under the same terms, as for `O=C(NC/C=C/S(=O)(=O)c1ccccc1)c1cc2c([nH]c1=O)CCN(C(=O)C1CCC(F)(F)CC1)C2` [Example 108, N-[(2E)-3-(benzenesulfonyl)prop-2-en-1-yl]-6-(4,4-difluorocyclohexanecarbonyl)-2-oxo-1,2,5,6,7,8-hexahydro-1,6-naphthyridine-3-carboxamide], the figure is at most 10 µM.
The same measure, in the same setting: for `N#CC1(C(=O)N2CCc3[nH]c(=O)c(C(=O)NC/C=C/S(=O)(=O)c4ccccc4)cc3C2)CCC1` [Example 111, N-[(2E)-3-(benzenesulfonyl)prop-2-en-1-yl]-6-(1-cyanocyclobutanecarbonyl)-2-oxo-1,2,5,6,7,8-hexahydro-1,6-naphthyridine-3-carboxamide] the value was at most 10 µM; for `O=C(NC/C=C/S(=O)(=O)c1ccccc1)c1cc2c([nH]c1=O)CCN(C(=O)C1CCN(c3ccccc3)C1)C2` (centres unmarked) [Example 118, N-[(2E)-3-(benzenesulfonyl)prop-2-en-1-yl]-2-oxo-6-(1-phenylpyrrolidine-3-carbonyl)-1,2,5,6,7,8-hexahydro-1,6-naphthyridine-3-carboxamide], at most 1 µM; for `COC(C)(C)CC(=O)N1CCc2[nH]c(=O)c(C(=O)NC/C=C/S(=O)(=O)c3ccccc3)cc2C1` [Example 124, N-[(2E)-3-(benzenesulfonyl)prop-2-en-1-yl]-6-(3-methoxy-3-methylbutanoyl)-2-oxo-1,2,5,6,7,8-hexahydro-1,6-naphthyridine-3-carboxamide], at most 10 µM.
On to `O=C(NC/C=C/S(=O)(=O)c1ccccc1Cl)c1cc(-c2ccccc2)c[nH]c1=O` [Example 129, N-[(2E)-3-(2-chlorobenzenesulfonyl)prop-2-en-1-yl]-2-oxo-5-phenyl-1,2-dihydropyridine-3-carboxamide], for which the IC50 was at most 1 µM.
In the case of `O=C(NC/C=C/S(=O)(=O)c1ccc(Cl)cc1)c1cc(-c2ccccc2)c[nH]c1=O` [Example 130, N-[(2E)-3-(4-chlorobenzenesulfonyl)prop-2-en-1-yl]-2-oxo-5-phenyl-1,2-dihydropyridine-3-carboxamide], the IC50 is at most 10 µM.
Same read-out and setting: for `N=S(=O)(/C=C/CNC(=O)c1cc2c([nH]c1=O)CCCC2)c1ccc(C(F)(F)F)cc1` (centres unmarked) [Example 154, N-[(2E)-3-[imino(oxo)[4-(trifluoromethyl)phenyl]-λ^6-sulfanyl]prop-2-en-1-yl]-2-oxo-1,2,5,6,7,8-hexahydroquinoline-3-carboxamide] the value was at most 0.1 µM; for `COc1ccc(S(=N)(=O)/C=C/CNC(=O)c2cc3c([nH]c2=O)C(C)(C)CCC3)cc1F` (centres unmarked) [Example 155, N-[(2E)-3-[(3-fluoro-4-methoxyphenyl)(imino)oxo-λ^6-sulfanyl]prop-2-en-1-yl]-8,8-dimethyl-2-oxo-1,2,5,6,7,8-hexahydroquinoline-3-carboxamide], at most 10 µM.
Same read-out and setting: as for `N=S(=O)(/C=C/CNC(=O)c1cc2c([nH]c1=O)CCCC2)Cc1ccccc1` (centres unmarked) [Example 157, N-[(2E)-3-[benzyl(imino)oxo-λ^6-sulfanyl]prop-2-en-1-yl]-2-oxo-1,2,5,6,7,8-hexahydroquinoline-3-carboxamide], the figure is at most 10 µM; as for `N=S(=O)(/C=C/CNC(=O)c1cc2c([nH]c1=O)CCCC2)c1ccc(N2CCCCC2=O)cc1` (centres unmarked) [Example 176, N-[(2E)-3-[imino(oxo)[4-(2-oxopiperidin-1-yl)phenyl]-λ^6-sulfanyl]prop-2-en-1-yl]-2-oxo-1,2,5,6,7,8-hexahydroquinoline-3-carboxamide], at most 1 µM.

In a further assay the test system is bladder carcinoma RT4 cell line. Put plainly: TNF-α-induced cytotoxicity assay (CellTiter-Glo viability). As to conditions: Homo sapiens, RT-4, 72 h. The format is cell-based. The protocol: A viability assay, using bladder carcinoma RT4 cell line, was used for identifying the potential inhibitory effect of tested compounds on HOIP activity. The viability was determined by CellTiter-Glo Luminescent Cell Viability Assay (G7571, Promega) which measures the ability of generating a luminescent signal proportional to the amount of ATP present in living cells. The assay consists of a few steps: • a) the cells were routinely sub cultivated twice a week with standard complete growth medium composition; • b) cells were preparated for the assay by creating a cell suspension at the density of 0.05 mln cells/mL and dispensed into plates (ViewPlate-384, PerkinElmer) resulting in 1000 cells/well; • c) cells were stimulated with 1.25 ng/mL TNFα and with compounds and incubated for 72 h at 37° C. in the atmosphere with 5% CO2; and • d) for detection cytotoxicity was measured with CellTiter-Glo® Luminescent Cell Viability Assay based on the method described by the manufacturer.
(Cellular ATP, detected with luciferase, serves as a proxy for viable cell number.)
The compound `O=C(NC/C=C/S(=O)(=O)c1ccccc1)c1cc2c([nH]c1=O)CCN(C(=O)CC13CC4CC(CC(C4)C1)C3)C2` [Example 106, 6-[2-(adamantan-1-yl)acetyl]-N-[(2E)-3-(benzenesulfonyl)prop-2-en-1-yl]-2-oxo-1,2,5,6,7,8-hexahydro-1,6-naphthyridine-3-carboxamide] had an IC50 of at most 10 µM.
`O=C(NC/C=C/S(=O)(=O)c1ccccc1Cl)c1cc(-c2ccccc2)c[nH]c1=O` [Example 129, N-[(2E)-3-(2-chlorobenzenesulfonyl)prop-2-en-1-yl]-2-oxo-5-phenyl-1,2-dihydropyridine-3-carboxamide] gave an IC50 of at most 10 µM.
Still for that read-out and setting: for `N=S(=O)(/C=C/CNC(=O)c1cc2c([nH]c1=O)CCCC2)c1ccc(C(F)(F)F)cc1` (centres unmarked) [Example 154, N-[(2E)-3-[imino(oxo)[4-(trifluoromethyl)phenyl]-λ^6-sulfanyl]prop-2-en-1-yl]-2-oxo-1,2,5,6,7,8-hexahydroquinoline-3-carboxamide] the value was at most 1 µM.
The same measure, in the same setting: for `COc1ccc(S(=N)(=O)/C=C/CNC(=O)c2cc3c([nH]c2=O)C(C)(C)CCC3)cc1F` (centres unmarked) [Example 155, N-[(2E)-3-[(3-fluoro-4-methoxyphenyl)(imino)oxo-λ^6-sulfanyl]prop-2-en-1-yl]-8,8-dimethyl-2-oxo-1,2,5,6,7,8-hexahydroquinoline-3-carboxamide] the value was at most 10 µM; for `N=S(=O)(/C=C/CNC(=O)c1cc2c([nH]c1=O)CCCC2)c1ccc(N2CCCCC2)cc1` (centres unmarked) [Example 161, N-[(2E)-3-[imino(oxo)[4-(piperidin-1-yl)phenyl]-λ^6-sulfanyl]prop-2-en-1-yl]-2-oxo-1,2,5,6,7,8-hexahydroquinoline-3-carboxamide], at most 1 µM.
